Assay results as given in publication PMC12091848, “Structural Insights Into Galectin‐3 Recognition of a Selenoglycomimetic” (Chemmedchem, 2025).

Molecular target: T1, Galectin-3 (Gal-3) (Homo sapiens, UniProt P17931)
T1 construct: gene LGALS3
Experiment: biochemical

T1 sequence (P17931 114-250 limits assumed): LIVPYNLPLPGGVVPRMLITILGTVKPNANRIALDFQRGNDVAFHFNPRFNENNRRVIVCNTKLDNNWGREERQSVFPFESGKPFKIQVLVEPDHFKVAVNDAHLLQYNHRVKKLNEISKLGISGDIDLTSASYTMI

How did the Kd turn out when `OC[C@H]1O[C@@H]([Se][C@@H]2O[C@H](CO)[C@H](O)[C@H](O)[C@H]2O)[C@H](O)[C@@H](O)[C@H]1O` [SeDG, di(β‐D‐galactopyranosyl)selenide] was run?
The Kd was 149 ± 30 µM.
